Earlier results, collected in publication PMC3433420 (PLoS ONE, 2012).
Where two headings read alike, the source gives them in different places.

Assays:
SH2 and PTB domains = conditions: most recent PM interactions, cited from earlier work
Excerpt: Supplement pone.0044471.s022.xlsx, sheet "Most recent PM interactions" | column: Kd || Supplement pone.0044471.s022.xlsx, sheet "All original PM interactions" | column: Kd

GRB7 SH2 domain = GRB7 SH2 domain (Homo sapiens, UniProt Q14451); parameters: 6X His; thioredoxin; made in house; host or cells: E. coli BL21(DE3)pLysS; conditions: Protein GRB7, most recent PM interactions, cited from earlier work
Sequence of GRB7 SH2 domain (Q14451 431-527 limits assumed): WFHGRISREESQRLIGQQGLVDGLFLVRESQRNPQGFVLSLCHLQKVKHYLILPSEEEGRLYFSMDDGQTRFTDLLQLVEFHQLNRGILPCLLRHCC

AFSPAFDNLpYYWDQDPPE [ErbB2 1221]
Kd (SH2 and PTB domains; Protein ABL2, ref Jones et al. 2006 / Kaushansky et al. Chem and Biol 2008): 500 nM
Kd (SH2 and PTB domains; Protein BLK, ref Jones et al. 2006 / Kaushansky et al. Chem and Biol 2008): 630 nM
Kd (SH2 and PTB domains; Protein BLNK, ref Jones et al. 2006 / Kaushansky et al. Chem and Biol 2008): 1560 nM
Kd (SH2 and PTB domains; Protein FGR, ref Jones et al. 2006 / Kaushansky et al. Chem and Biol 2008): 420 nM
Kd (SH2 and PTB domains; Protein GRB10, ref Jones et al. 2006 / Kaushansky et al. Chem and Biol 2008): 120 nM
Kd (SH2 and PTB domains; Protein GRB14, ref Jones et al. 2006 / Kaushansky et al. Chem and Biol 2008): 1400 nM
Kd (SH2 and PTB domains; Protein ITK, ref Jones et al. 2006 / Kaushansky et al. Chem and Biol 2008): 780 nM
Kd (SH2 and PTB domains; Protein LYN, ref Jones et al. 2006 / Kaushansky et al. Chem and Biol 2008): 930 nM
Kd (SH2 and PTB domains; Protein PIK3R1-NC, ref Jones et al. 2006 / Kaushansky et al. Chem and Biol 2008): 1160 nM
Kd (SH2 and PTB domains; Protein PIK3R2-N, ref Jones et al. 2006 / Kaushansky et al. Chem and Biol 2008): 950 nM
Kd (SH2 and PTB domains; Protein PIK3R3-C, ref Jones et al. 2006 / Kaushansky et al. Chem and Biol 2008): 1910 nM
Kd (SH2 and PTB domains; Protein PLCG1-N, ref Jones et al. 2006 / Kaushansky et al. Chem and Biol 2008): 1930 nM
Kd (SH2 and PTB domains; Protein PLCG1-NC, ref Jones et al. 2006 / Kaushansky et al. Chem and Biol 2008): 1960 nM
Kd (SH2 and PTB domains; Protein PLCG2-N, ref Jones et al. 2006 / Kaushansky et al. Chem and Biol 2008): 170 nM
Kd (SH2 and PTB domains; Protein RASA1-N, ref Jones et al. 2006 / Kaushansky et al. Chem and Biol 2008): 190 nM
Kd (SH2 and PTB domains; Protein RASA1-NC, ref Jones et al. 2006 / Kaushansky et al. Chem and Biol 2008): 510 nM
Kd (SH2 and PTB domains; Protein SH2D3A, ref Jones et al. 2006 / Kaushansky et al. Chem and Biol 2008): 1280 nM
Kd (SH2 and PTB domains; Protein SH2D3C, ref Jones et al. 2006 / Kaushansky et al. Chem and Biol 2008): 160 nM
Kd (SH2 and PTB domains; Protein SHB, ref Jones et al. 2006 / Kaushansky et al. Chem and Biol 2008): 210 nM
Kd (SH2 and PTB domains; Protein SHC1-PTB, ref Jones et al. 2006 / Kaushansky et al. Chem and Biol 2008): 340 nM
Kd (SH2 and PTB domains; Protein SHC2-PTB, ref Jones et al. 2006 / Kaushansky et al. Chem and Biol 2008): 430 nM
Kd (SH2 and PTB domains; Protein SHF, ref Jones et al. 2006 / Kaushansky et al. Chem and Biol 2008): 340 nM
Kd (SH2 and PTB domains; Protein SLA2, ref Jones et al. 2006 / Kaushansky et al. Chem and Biol 2008): 1440 nM
Kd (SH2 and PTB domains; Protein SRC, ref Jones et al. 2006 / Kaushansky et al. Chem and Biol 2008): 35 nM
Kd (SH2 and PTB domains; Protein SUPT6H, ref Jones et al. 2006 / Kaushansky et al. Chem and Biol 2008): 1570 nM
Kd (SH2 and PTB domains; Protein SYK-C, ref Jones et al. 2006 / Kaushansky et al. Chem and Biol 2008): 540 nM
Kd (SH2 and PTB domains; Protein SYK-N, ref Jones et al. 2006 / Kaushansky et al. Chem and Biol 2008): 260 nM
Kd (SH2 and PTB domains; Protein SYK-NC, ref Jones et al. 2006 / Kaushansky et al. Chem and Biol 2008): 300 nM
Kd (SH2 and PTB domains; Protein TEC, ref Jones et al. 2006 / Kaushansky et al. Chem and Biol 2008): 770 nM
Kd (SH2 and PTB domains; Protein TXK, ref Jones et al. 2006 / Kaushansky et al. Chem and Biol 2008): 1230 nM
Kd (SH2 and PTB domains; Protein VAV2, ref Jones et al. 2006 / Kaushansky et al. Chem and Biol 2008): 1750 nM
Kd (SH2 and PTB domains; Protein VAV3, ref Jones et al. 2006 / Kaushansky et al. Chem and Biol 2008): 1130 nM
Kd (SH2 and PTB domains; Protein YES1, ref Jones et al. 2006 / Kaushansky et al. Chem and Biol 2008): 45 nM
Kd (SH2 and PTB domains; Protein ZAP70-NC, ref Jones et al. 2006 / Kaushansky et al. Chem and Biol 2008): 1440 nM
Kd (GRB7 SH2 domain; ref Jones et al. 2006 / Kaushansky et al. Chem and Biol 2008): 530 nM

DDTFLPVPEpYINQSVPKd [ErbB1 1092]
Kd (SH2 and PTB domains; Protein ABL1, ref Jones et al. 2006 / Kaushansky et al. Mol Biosys 2008 / Kaushansky et al. Chem and Biol 2008): 920 nM
Kd (SH2 and PTB domains; Protein ABL2, ref Jones et al. 2006 / Kaushansky et al. Mol Biosys 2008 / Kaushansky et al. Chem and Biol 2008): 150 nM
Kd (SH2 and PTB domains; Protein BLK, ref Jones et al. 2006 / Kaushansky et al. Mol Biosys 2008 / Kaushansky et al. Chem and Biol 2008): 300 nM
Kd (SH2 and PTB domains; Protein GRB2, ref Jones et al. 2006 / Kaushansky et al. Mol Biosys 2008 / Kaushansky et al. Chem and Biol 2008): 200 nM
Kd (SH2 and PTB domains; Protein GRB10, ref Jones et al. 2006 / Kaushansky et al. Mol Biosys 2008 / Kaushansky et al. Chem and Biol 2008): 1300 nM
Kd (SH2 and PTB domains; Protein ITK, ref Jones et al. 2006 / Kaushansky et al. Mol Biosys 2008 / Kaushansky et al. Chem and Biol 2008): 220 nM
Kd (SH2 and PTB domains; Protein NCK2, ref Jones et al. 2006 / Kaushansky et al. Mol Biosys 2008 / Kaushansky et al. Chem and Biol 2008): 1100 nM
Kd (SH2 and PTB domains; Protein PIK3R1-N, ref Jones et al. 2006 / Kaushansky et al. Mol Biosys 2008 / Kaushansky et al. Chem and Biol 2008): 1080 nM
Kd (SH2 and PTB domains; Protein PIK3R1-NC, ref Jones et al. 2006 / Kaushansky et al. Mol Biosys 2008 / Kaushansky et al. Chem and Biol 2008): 670 nM
Kd (SH2 and PTB domains; Protein PIK3R2-N, ref Jones et al. 2006 / Kaushansky et al. Mol Biosys 2008 / Kaushansky et al. Chem and Biol 2008): 450 nM
Kd (SH2 and PTB domains; Protein PIK3R2-NC, ref Jones et al. 2006 / Kaushansky et al. Mol Biosys 2008 / Kaushansky et al. Chem and Biol 2008): 1410 nM
Kd (SH2 and PTB domains; Protein PIK3R3-N, ref Jones et al. 2006 / Kaushansky et al. Mol Biosys 2008 / Kaushansky et al. Chem and Biol 2008): 510 nM
Kd (SH2 and PTB domains; Protein PIK3R3-NC, ref Jones et al. 2006 / Kaushansky et al. Mol Biosys 2008 / Kaushansky et al. Chem and Biol 2008): 1020 nM
Kd (SH2 and PTB domains; Protein PLCG2-NC, ref Jones et al. 2006 / Kaushansky et al. Mol Biosys 2008 / Kaushansky et al. Chem and Biol 2008): 1630 nM
Kd (SH2 and PTB domains; Protein RASA1-N, ref Jones et al. 2006 / Kaushansky et al. Mol Biosys 2008 / Kaushansky et al. Chem and Biol 2008): 180 nM
Kd (SH2 and PTB domains; Protein SRC, ref Jones et al. 2006 / Kaushansky et al. Mol Biosys 2008 / Kaushansky et al. Chem and Biol 2008): 1790 nM
Kd (SH2 and PTB domains; Protein SYK-C, ref Jones et al. 2006 / Kaushansky et al. Mol Biosys 2008 / Kaushansky et al. Chem and Biol 2008): 1920 nM
Kd (SH2 and PTB domains; Protein SYK-NC, ref Jones et al. 2006 / Kaushansky et al. Mol Biosys 2008 / Kaushansky et al. Chem and Biol 2008): 910 nM
Kd (SH2 and PTB domains; Protein VAV2, ref Jones et al. 2006 / Kaushansky et al. Mol Biosys 2008 / Kaushansky et al. Chem and Biol 2008): 540 nM
Kd (SH2 and PTB domains; Protein YES1, ref Jones et al. 2006 / Kaushansky et al. Mol Biosys 2008 / Kaushansky et al. Chem and Biol 2008): 340 nM
Kd (GRB7 SH2 domain; ref Jones et al. 2006 / Kaushansky et al. Mol Biosys 2008 / Kaushansky et al. Chem and Biol 2008): 1990 nM

EHKDNIGSQpYLLNWCVQd [ErbB1 813]
Kd (SH2 and PTB domains; Protein ABL2, ref Kaushansky et al. Mol Biosys 2008): 200 nM
Kd (SH2 and PTB domains; Protein GRB10, ref Kaushansky et al. Mol Biosys 2008): 350 nM
Kd (SH2 and PTB domains; Protein ITK, ref Kaushansky et al. Mol Biosys 2008): 310 nM
Kd (SH2 and PTB domains; Protein NCK2, ref Kaushansky et al. Mol Biosys 2008): 200 nM
Kd (SH2 and PTB domains; Protein PIK3R1-C, ref Kaushansky et al. Mol Biosys 2008): 1850 nM
Kd (SH2 and PTB domains; Protein PIK3R1-NC, ref Kaushansky et al. Mol Biosys 2008): 1820 nM
Kd (SH2 and PTB domains; Protein PIK3R3-NC, ref Kaushansky et al. Mol Biosys 2008): 1870 nM
Kd (SH2 and PTB domains; Protein RASA1-C, ref Kaushansky et al. Mol Biosys 2008): 1950 nM
Kd (SH2 and PTB domains; Protein RASA1-NC, ref Kaushansky et al. Mol Biosys 2008): 160 nM
Kd (SH2 and PTB domains; Protein SH2D1B, ref Kaushansky et al. Mol Biosys 2008): 1600 nM
Kd (SH2 and PTB domains; Protein SH2D3C, ref Kaushansky et al. Mol Biosys 2008): 50 nM
Kd (SH2 and PTB domains; Protein SHB, ref Kaushansky et al. Mol Biosys 2008): 280 nM
Kd (SH2 and PTB domains; Protein SHE, ref Kaushansky et al. Mol Biosys 2008): 1380 nM
Kd (SH2 and PTB domains; Protein SHF, ref Kaushansky et al. Mol Biosys 2008): 1060 nM
Kd (SH2 and PTB domains; Protein SRC, ref Kaushansky et al. Mol Biosys 2008): 80 nM
Kd (SH2 and PTB domains; Protein SYK-NC, ref Kaushansky et al. Mol Biosys 2008): 240 nM
Kd (SH2 and PTB domains; Protein TENC1, ref Kaushansky et al. Mol Biosys 2008): 1150 nM
Kd (SH2 and PTB domains; Protein TNS3, ref Kaushansky et al. Mol Biosys 2008): 1890 nM
Kd (SH2 and PTB domains; Protein VAV1, ref Kaushansky et al. Mol Biosys 2008): 370 nM
Kd (SH2 and PTB domains; Protein VAV2, ref Kaushansky et al. Mol Biosys 2008): 470 nM
Kd (SH2 and PTB domains; Protein VAV3, ref Kaushansky et al. Mol Biosys 2008): 960 nM
Kd (SH2 and PTB domains; Protein YES1, ref Kaushansky et al. Mol Biosys 2008): 22 nM
Kd (GRB7 SH2 domain; ref Kaushansky et al. Mol Biosys 2008): 460 nM
